Assay results reported in US11066379B2 (THE TEXAS A&M UNIVERSITY SYSTEM, priority 2018, dated 2021).

How the values were obtained:
[1] = Viability of human T lymphocytes (MTT assay, 48 h); assay type: cell-based; settings: human; 0.1 μM, 48 hours; read-out: decrease in cell viability
Description: (§1) The MTT (3-[4,5-dimethylthiazol-2-yl]-2,5-diphenyltetrazoliumbromide) assay was used to determine the cytotoxicity of gracilin derivatives in T lymphocytes (Burton, J. D. Methods Mol. Med., 2005, 110, 69-78) and SH-SY5Y cells and the protective effect of these compounds against H2O2 insult in neuroblastoma cells as previously described (Leiros, M., Alonso, E., Sanchez, J. A., Rateb, M. E., Ebel, R., Houssen, W. E., Jaspars, M., Alfonso, A. and Botana, L. M. ACS Chem. Neurosci., 2014, S, 71-80). Human T lymphocytes were cultured in 24 well plates at the concentration of 2.5×10^6 cells/mL and exposed to different compound concentrations (0.01, 0.1, 1 and 10 μM) added to the culture medium. Human T cells were maintained in the presence of the pure compound at 37° C. in humidified 5% CO2/95% air atmosphere for 48 h.
(§2) Saponin was used as cellular death control and its absorbance was subtracted from the other data. After the incubation period with compounds, assay was performed. First cells were centrifuged (1500 rpm, 5 min, 4° C.). The pellets were resuspended in saline solution with MTT (250 μg/mL) and then incubated at 37° C. during 30 min. After washing off excess MTT twice with saline solution, cells were disaggregated with H2O and sonicated for 1 min and the absorbance of the colored formazan salt was measured at 595 nm in a spectrophotometer plate reader. All experiments were performed three times.

human T lymphocytes = test: Viability of human T lymphocytes (MTT assay, 48 h); assay type: cell-based; settings: in words
Description: as §1, §2

CypD = CypD (Homo sapiens, UniProt P30405); test: CypD enzyme inhibition assay (PPIase activity); assay type: biochemical; settings: for IC50: CypD 1 nM; for selectivity for CypD over CypA: PPIase IC50 CypA vs CypD
Method: The inhibition of the peptidyl-prolyl cis-trans isomerase (PPIase) activity of compounds was determined by following the rate of hydrolysis of N-succinyl-Ala-Ala-Pro-Phe-pnitroanilide by chymotrypsin. CsA was used as positive control. The assay was performed as previously described (Yan, W., Qing, J., Mei, H., Nong, J., Huang, J., Zhu, J., Jiang, H., Liu, L., Zhang, L. and Li, J. Bioorg. Med. Chem. Lett., 2015, 25, 5682-5686) with small modifications. The assay buffer (20 mM Tris-HCl, 50 mM NaCl, pH 7.8), CypD (1 nM) and the compounds at concentrations ranging from 0.001 to 10 μM were pre-cooled at 4° C. for 1 h. After that time, chymotrypsin at 0.4 mg/mL in 1 mM HCl was added to each well. The reaction was initiated by the addition of the peptide (0.1 mg/mL in 500 mM LiCl in THF). The absorbance at 380 nm was monitored every 30 sec for 5 min with a spectrophotometer plate reader. The blank rates of hydrolysis (in absence of CypD) were subtracted from the rates in the presence of the enzyme. The half-maximal inhibitory concentration (IC50) was calculated by fitting the data with a log(inhibitor) vs. response model of GraphPad Prism 5.0 software. All experiments were performed four times.

SHSY5Y cells = test: Neuroprotective effects summarised over all five assays (viability, TMRM, ROS, GSH, mPTP); assay type: cell-based, human; settings: 0.001, 0.01 or 0.1 μM; H2O2 challenge
Method: As described previously, neuroprotective agents can mediate their effects through inhibition of CypD, an isoform of CypA. […] All assays were performed at the indicated concentrations (0.001, 0.01, or 0.1 μM) based on initial cytotoxicity determined with SHSY5Y cells (Table 1).

SH-SY5Y cells = test: Intracellular ROS levels (carboxy-H2DCFDA) after H2O2; assay type: cell-based, human; settings: 150 μM H2O2 co-treatment 6 h
Method: Intracellular levels of reactive oxygen species (ROS) were determined with carboxy-H2DCFDA (5-(and-6)-carboxy-2′,7′-dichlorodihydrofluorescein diacetate). This dye diffuses through the cellular membrane and is converted by cellular esterases to carboxy-H2DCFH (non-fluorescent). When carboxy-H2DCFH is oxidized by ROS, it becomes fluorescent (Halliwell, B. and Whiteman, M. Br. J. Pharmacol., 2004, 142, 231-255). Cells were seeded at a density of 2.5×10^5 cells/mL in 96-well plates and allowed to attach for 24 h. Following treatment with compounds at various concentrations (1 μM→1 nM) and 150 μM H2O2 for 6 h, SH-SY5Y cells were washed twice with serum-free culture medium. Then, carboxy-H2DCFDA 20 μM dissolved in serum-free culture medium was added to each well and the cells were incubated for 1 h at 37° C. After this incubation, the medium with the fluorescent dye was replaced with PBS and the plate was incubated for 30 min at 37° C. Fluorescence was read at 527 nm, with an excitation wavelength of 495 nm. All experiments were performed four times.

CypA = molecular target: T1, CypA (Homo sapiens, UniProt P62937); test: CypA PPIase activity inhibition; assay type: biochemical; settings: PPIase IC50 CypA vs CypD
T1 construct: Active human CypA full-length protein was from Abcam; purchased Abcam
T1 sequence (P62937 whole entry): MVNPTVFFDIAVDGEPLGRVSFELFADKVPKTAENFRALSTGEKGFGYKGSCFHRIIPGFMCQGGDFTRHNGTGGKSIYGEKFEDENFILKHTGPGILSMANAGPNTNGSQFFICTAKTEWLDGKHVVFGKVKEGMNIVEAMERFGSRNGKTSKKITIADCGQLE

Sequence of CypD (P30405 30-207): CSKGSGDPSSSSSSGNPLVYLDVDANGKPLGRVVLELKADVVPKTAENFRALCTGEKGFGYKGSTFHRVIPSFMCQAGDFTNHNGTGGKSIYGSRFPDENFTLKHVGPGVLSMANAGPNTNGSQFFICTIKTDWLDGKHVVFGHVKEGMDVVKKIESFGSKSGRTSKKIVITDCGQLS

With `CC(=O)O[C@H]1OC[C@@H]2C=C([C@@]3(C)CCCC(C)(C)C3)CC[C@H]12` [Compound 29a, (1R,3aR,7aS)-5-(1,3,3-trimethylcyclohexyl)-1,3,3a,6,7,7a-hexahydroisobenzofuran-1-yl acetate] the cytotoxicity at 48 h, 0.1 μM [1] was 15 to 25%, the “impact on T-cell viability” value (human T lymphocytes) was “relatively non-toxic” and the IC50 (CypD) was under 500 nM. The “neuroprotective / antioxidant effects based on all five assays” value (SHSY5Y cells) was “displayed significant neuroprotective effects”.
In the case of `CC(=O)O[C@@H]1OC[C@H]2C=C(C3(C)CCCCC3)CC[C@@H]12` [Compound 27a, (1S,3aS,7aR)-5-(1-methylcyclohexyl)-1,3,3a,6,7,7a-hexahydroisobenzofuran-1-yl acetate], the ROS levels (SH-SY5Y cells) is reported as “diminishing ROS at two or three concentrations”, the IC50 (CypD) is reported as under 500 nM and the “selectivity for CypD over CypA” value (CypD) is reported as “about 3 fold”. The “selectivity for CypD over CypA” value (CypD; listed as (−)-27a) was about 3 fold and the “neuroprotective / antioxidant effects based on all five assays” value (SHSY5Y cells) was “displayed significant neuroprotective effects”.
In the case of `CC(=O)O[C@H]1O[C@@H](OC(C)=O)[C@@H]2CC[C@](O)(C3(C)CCCC(C)(C)C3)C[C@H]12` (stereo partly drawn) [Compound 22, (1S,3R,3aS,5R,7aR)-5-hydroxy-5-(1,3,3-trimethylcyclohexyl)octahydroisobenzo-furan-1,3-diyl diacetate], the ROS levels (SH-SY5Y cells) is reported as “diminishing ROS at two or three concentrations”, the IC50 (CypD) is reported as under 500 nM and the “selectivity for CypA” value (CypA) is reported as 4 fold. The “neuroprotective / antioxidant effects based on all five assays” value (SHSY5Y cells) was “displayed significant neuroprotective effects”.
